25 compounds from patent US12257247B2 (Monte Rosa Therapeutics AG, priority 2023, dated 2025) can be followed below.

This test addresses T1, VAV1 (Homo sapiens, UniProt P15498+Q96SW2).
T1 construct: A heterozygous VAV1 C-terminal HiBiT knock-in pool was generated at Monte Rosa Therapeutics from a clonal Jurkat cell; endogenous in cells; host or cells: Jurkat clone stably expressing LgBiT, homozygous GSPT1-G575N; heterozygous VAV1-HiBiT knock-in pool
As to the kind of experiment: VAV1 degradation activity, VAV1-HiBiT knock-in Jurkat luminescence assay (Example A, Table 1). The class given is cell-based. Conditions: VAV1-HiBiT knock-in Jurkat cells; for Dmax: Jurkat. The gist of the method:
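Jurkat cells carrying VAV1-HiBiT knock-in, plated in RPMI/10% FBS with Endurazine live-cell substrate and pre-incubated ~16 h at 37° C. Compound dosed from 10 μM stock; luminescence read 6 and 24 h later. Response normalised to plate negative/positive controls, EC50 from 3-parameter logistic fit (hillslope 1).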

Where [1] appears, read: luminescence read at 6 and 24 hours, read-out: VAV1 Dmax %.
[2] abbreviates: luminescence read at 6 and 24 hours, read-out: VAV1 Dmax %, class.
[3] abbreviates: luminescence read at 6 and 24 hours, read-out: VAV1 DC50.
[4] abbreviates: luminescence read at 6 and 24 hours, read-out: VAV1 DC50 (nM), class.

Structures are written as SMILES. Read-outs that look alike come from different tables or passages of the source. Where only a bound is given, the exact number is not on record here.

By Dmax is commonly meant the greatest extent of degradation seen. One may read the DC50 as the concentration at which degradation of the target reaches its halfway point.

In the case of `CN1CCC[C@H](c2ccc(-c3cccc(C4CCC(=O)NC4=O)c3Cl)cc2)C1=O` (stereo partly drawn) [Compound 409, 3-(2-chloro-4′-((R)-1-methyl-2-oxopiperidin-3-yl)-[1,1′-biphenyl]-3-yl)piperidine-2,6-dione], the Dmax under setting [1] was determined as 95.2% and the Dmax under setting [2] is greater than 90%. The DC50 is 7.82 nM under setting [3] and no more than 100 nM under setting [4].
The matching figures for `O=C1CCC(c2cccc(-c3ccc(Cc4cccnc4)cc3)c2Cl)C(=O)N1` (stereo not shown) [Compound 374, 3-(2-chloro-4′-(pyridin-3-ylmethyl)-[1,1′-biphenyl]-3-yl)piperidine-2,6-dione]: 97.4%, greater than 90%, 10.2 nM and no more than 100 nM.
The matching figures for `Cc1c(-c2ccc(-n3ccccc3=O)cc2)cccc1C1CCC(=O)NC1=O` (stereo not shown) [Compound 240, 3-[2-methyl-3-[4-(2-oxo-1-pyridyl)phenyl]phenyl]piperidine-2,6-dione]: 94.4%, greater than 90%, 77.1 nM and no more than 100 nM.
For `N#Cc1ccc(-c2cccc(C3CCC(=O)NC3=O)c2Cl)cc1N` (stereo not shown) [Compound 133], the Dmax is 79% under setting [1] and 60 to 90% under setting [2]. Besides, the DC50 is 427 nM under setting [3] and 100 to 1000 nM under setting [4].
The matching figures for `COc1ccnc(Cc2ccc(-c3cccc(C4CCC(=O)NC4=O)c3Cl)cc2)n1` (stereo not shown) [Compound 421, 3-(2-chloro-4′-((4-methoxypyrimidin-2-yl)methyl)-[1,1′-biphenyl]-3-yl)piperidine-2,6-dione]: 97.8%, greater than 90%, 6.96 nM and no more than 100 nM.
The matching figures for `O=C1CCC(c2cccc(-c3ccc(-n4cccc(C(F)(F)F)c4=O)cc3)c2Cl)C(=O)N1` (stereo not shown) [Compound 226, 3-(2-chloro-4′-(2-oxo-3-(trifluoromethyl)pyridin-1(2H)-yl)-[1,1′-biphenyl]-3-yl)piperidine-2,6-dione]: 96.8%, greater than 90%, 9.8 nM and no more than 100 nM.
For the compound `O=C1CCC(c2cccc(-c3ccc4c(c3)CCN4)c2F)C(=O)N1` (stereo not shown) [Compound 491, 3-(2-fluoro-3-(indolin-5-yl)phenyl)piperidine-2,6-dione], the Dmax reads like this: (luminescence read at 6 and 24 hours after compound addition, read-out: VAV1 Dmax %) 88.5%; (luminescence read at 6 and 24 hours after compound addition, read-out: VAV1 Dmax %, class) 60 to 90%. Moreover, the DC50 is 15.7 nM (luminescence read at 6 and 24 hours after compound addition, read-out: VAV1 DC50); no more than 100 nM (luminescence read at 6 and 24 hours after compound addition, read-out: VAV1 DC50 (nM), class).
Turning to `O=C1CCC(c2cccc(-c3ccc(N4C(=O)CCC45CCC5)cc3)c2Cl)C(=O)N1` (stereo not shown) [Compound 457, 3-(2-chloro-4′-(6-oxo-5-azaspiro[3.4]octan-5-yl)-[1,1′-biphenyl]-3-yl)piperidine-2,6-dione], the Dmax is, setting by setting: under setting [1], 98.2%; under setting [2], greater than 90%. The DC50 runs as follows: under setting [3], 2.78 nM; under setting [4], no more than 100 nM.
As to `Cn1ccc(COc2ccc(-c3cccc(C4CCC(=O)NC4=O)c3)cc2)n1` (stereo not shown) [Compound 151, 3-(4′-((1-methyl-1H-pyrazol-3-yl)methoxy)-[1,1′-biphenyl]-3-yl)piperidine-2,6-dione], the Dmax was 39.8% under setting [1] and less than 60% under setting [2]. Moreover, the DC50 runs as follows: under setting [3], no less than 10000 nM; under setting [4], greater than 1000 nM.
The matching figures for `CC1CCN(Cc2ccc(-c3cccc(C4CCC(=O)NC4=O)c3Cl)cc2)C(=O)C1` (stereo not shown) [Compound 286]: 94%, greater than 90%, 15.9 nM and no more than 100 nM.
The matching figures for `O=C1CCC(c2cccc(-c3ccc(N4C(=O)OCCC45CCC5)nc3)c2Cl)C(=O)N1` (stereo not shown) [Compound 359, 3-(2-chloro-3-(6-(6-oxo-7-oxa-5-azaspiro-[3.5]nonan-5-yl)pyridin-3-yl)phenyl)piperidine-2,6-dione]: 95%, greater than 90%, 13.3 nM and no more than 100 nM.
The matching figures for `O=C1CCC(c2cccc(-c3ccc(N4CCCOC4=O)cc3)c2Cl)C(=O)N1` (stereo not shown) [Compound 204, 3-(2-chloro-4′-(2-oxo-1,3-oxazinan-3-yl)-[1,1′-biphenyl]-3-yl)piperidine-2,6-dione]: 95.8%, greater than 90%, 12.2 nM and no more than 100 nM.
For the compound `CC1(C)COCC(=O)N1Cc1ccc(-c2cccc(C3CCC(=O)NC3=O)c2Cl)cc1` (stereo not shown) [Compound 263], the Dmax under setting [1] turned out to be 87.5% and the Dmax under setting [2] is 60 to 90%. Further, the DC50 was 29.3 nM under setting [3] and no more than 100 nM under setting [4].
For `O=C1CCC(c2cccc(-c3ccc(CN4Cc5nccn5CC4=O)cc3)c2Cl)C(=O)N1` (stereo not shown) [Compound 276] the same measures were 88.6%, 60 to 90%, 47.6 nM and no more than 100 nM.
For `Cn1ccc(Cc2nn(C)c3cc(-c4cccc(C5CCC(=O)NC5=O)c4Cl)ccc23)n1` (stereo not shown) [Compound 480, 3-(2-chloro-3-(1-methyl-3-((1-methyl-1H-pyrazol-3-yl)methyl)-1H-indazol-6-yl)phenyl)piperidine-2,6-dione] the same measures were 96.7%, greater than 90%, 8.08 nM and no more than 100 nM.
For `O=C1CCC(c2cccc(-c3ccc(-n4cccnc4=O)cc3)c2Cl)C(=O)N1` (stereo not shown) [Compound 471, 3-(2-chloro-4′-(2-oxopyrimidin-1(2H)-yl)-[1,1′-biphenyl]-3-yl)piperidine-2,6-dione] the same measures were 92.8%, greater than 90%, 24.1 nM and no more than 100 nM.
`CC1(C)CCC(=O)N1c1ccc(-c2cccc(C3CCC(=O)NC3=O)c2Cl)cc1` (stereo not shown) [Compound 413, 3-(2-chloro-4′-(2,2-dimethyl-5-oxopyrrolidin-1-yl)-[1,1′-biphenyl]-3-yl)piperidine-2,6-dione]: the maximal degradation (Dmax) was 97.5% under setting [1] and greater than 90% under setting [2]. Also, the DC50 was 4.87 nM under setting [3] and no more than 100 nM under setting [4].
The matching figures for `O=C1CCC(c2cccc(-c3ccc(C(=O)Nc4ccon4)cc3)c2Cl)C(=O)N1` (stereo not shown) [Compound 230, 2′-chloro-3′-(2,6-dioxopiperidin-3-yl)-N-(isoxazol-3-yl)-[1,1′-biphenyl]-4-carboxamide]: 58.5%, less than 60%, 2090 nM and greater than 1000 nM.
For `O=C1CCC(c2cccc(-c3ccc(Cc4ncco4)nc3)c2Cl)C(=O)N1` (stereo not shown) [Compound 430, 3-(2-chloro-3-(6-(oxazol-2-ylmethyl)pyridin-3-yl)phenyl)piperidine-2,6-dione] the same measures were 72.6%, 60 to 90%, 261 nM and 100 to 1000 nM.
The matching figures for `Cc1cnc(Cc2ccc(-c3cccc(C4CCC(=O)NC4=O)c3Cl)cc2)nc1` (stereo not shown) [Compound 420, 3-(2-chloro-4′-((5-methylpyrimidin-2-yl)methyl)-[1,1′-biphenyl]-3-yl)piperidine-2,6-dione]: 98.8%, greater than 90%, 2.43 nM and no more than 100 nM.
With `O=C1CCC(c2cccc(-c3ccc(-n4cccc(F)c4=O)cc3)c2Cl)C(=O)N1` (stereo not shown) [Compound 218], the Dmax by setting is: under setting [1], 96%; under setting [2], greater than 90%. Moreover, the DC50 is, setting by setting: under setting [3], 9.71 nM; under setting [4], no more than 100 nM.
The matching figures for `O=C1CCC(c2cccc(-c3ccc4c(c3)CC(=O)N4Cc3cccnn3)c2Cl)C(=O)N1` (stereo not shown) [Compound 395, 3-(2-chloro-3-(2-oxo-1-(pyridazin-3-ylmethyl)indolin-5-yl)phenyl)piperidine-2,6-dione]: 83.9%, 60 to 90%, 55.7 nM and no more than 100 nM.
As for `O=C1CCC(c2cccc(-c3ccc(OCC4CCOC4)cc3)c2Cl)C(=O)N1` (stereo not shown) [Compound 141], the Dmax reads like this: under setting [1], 87.6%; under setting [2], 60 to 90%. The DC50 is 99.2 nM under setting [3] and no more than 100 nM under setting [4].
As to `Cc1cccc(=O)n1-c1ccc(-c2cccc(C3CCC(=O)NC3=O)c2Cl)cn1` (stereo not shown) [Compound 353, 3-(2-chloro-3-(6-methyl-2-oxo-2H-[1,2′-bipyridin]-5′-yl)phenyl)piperidine-2,6-dione], the Dmax was 90.7% under setting [1] and greater than 90% under setting [2]. The 50% degradation concentration (DC50) runs as follows: under setting [3], 62.1 nM; under setting [4], no more than 100 nM.
For `O=C1CCC(c2cccc(-c3cnc(N4C(=O)CCC45CCC5)c(F)c3)c2Cl)C(=O)N1` (stereo not shown) [Compound 365, 3-(2-chloro-3-(5-fluoro-6-(6-oxo-5-azaspiro[3.4]octan-5-yl)pyridin-3-yl)phenyl)piperidine-2,6-dione] the same measures were 88%, 60 to 90%, 55 nM and no more than 100 nM.
